The values that follow come from ChEMBL document CHEMBL6114940, “Exploring the pharmaceutical potential of ammonium organotrifluoroborate functional group: Comprehensive chemical, metabolic, and plasma stability evaluation” (Eur J Med Chem, 2024).

Structures are written as SMILES.

The nature of data set [1]: Stability of compound in 20 mM CH3COONH4 buffer at pH 5.8 assessed as 1-borono-N,N-dimethyl-N-((1-(2-(2-(2-(((2R,3R,4S,5S,6R)-3,4,5-trihydroxy-6-(hydroxymethyl)tetrahydro-2H-pyran-2-yl)oxy)ethoxy)ethoxy)ethyl)-1H-1,2,3-triazol-4-yl)methyl)methanaminium formation incubated for 72 hrs by LC-MS analysis. In kind it is physicochemical. The conditions noted are these: pH 5.8, 72 h.

Data set [2] is described as follows: Stability of compound in 20 mM CH3COONH4 buffer at pH 5.8 assessed as half life incubated for 72 hrs by LC-MS analysis. The class given is physicochemical. The conditions noted are these: 20 mM ammonium acetate (CH3COONH4) buffer.
A short description of data set [3]: Stability of compound in 0.3 % H2O2 assessed as (2R,3R,4S,5S,6R)-2-(2-(2-(2-(4-((dimethylamino)methyl)-1H-1,2,3-triazol-1-yl)ethoxy)ethoxy)ethoxy)-6-(hydroxymethyl)tetrahydro-2H-pyran-3,4,5-triol formation incubated for 1 hrs by LC-MS analysis. The class given is physicochemical.
Data set [4] can be described thus: Stability of compound in 0.05 M HCL assessed as solvolysis constant (K) incubated for 72 hrs by LC-MS analysis. In kind it is physicochemical. On the set-up: unit not given beside the values. The conditions noted are these: buffer.
A short description of data set [5]: Stability of compound in 50 mM Tris-HCL buffer at pH 7.4 assessed as solvolysis constant (K) incubated for 72 hrs by LC-MS analysis. In kind it is physicochemical. The conditions noted are these: pH 7.4, 72 h.
Data set [6] is described as follows: Stability of compound in 0.9 % saline solution assessed as half life incubated for 72 hrs by LC-MS analysis. The class given is physicochemical.
A short description of data set [7]: Stability of compound in 50 mM Tris-HCL buffer at pH 7.4 assessed as half life incubated for 72 hrs by LC-MS analysis. The class given is physicochemical.
Data set [8] is described as follows: Stability of compound in 0.5 M NaOH assessed as N,N,N-trimethyl-1-(1-(2-(2-(2-(((2R,3R,4S,5S,6R)-3,4,5-trihydroxy-6-(hydroxymethyl)tetrahydro-2H-pyran-2-yl)oxy)ethoxy)ethoxy)ethyl)-1H-1,2,3-triazol-4-yl)methanaminium formation incubated for 72 hrs by LC-MS analysis. In kind it is physicochemical.
Data set [9] in a line: Stability of compound in 0.05 M HCL assessed as half life incubated for 72 hrs by LC-MS analysis. The class given is physicochemical.
Data set [10] is described as follows: Stability of compound in 0.9 % saline solution assessed as 1-borono-N,N-dimethyl-N-((1-(2-(2-(2-(((2R,3R,4S,5S,6R)-3,4,5-trihydroxy-6-(hydroxymethyl)tetrahydro-2H-pyran-2-yl)oxy)ethoxy)ethoxy)ethyl)-1H-1,2,3-triazol-4-yl)methyl)methanaminium formation incubated for 72 hrs by LC-MS analysis. The class given is physicochemical. The conditions noted are these: buffer.

The nature of data set [11]: Stability of compound in 0.5 M NaOH assessed as 1-borono-N,N-dimethyl-N-((1-(2-(2-(2-(((2R,3R,4S,5S,6R)-3,4,5-trihydroxy-6-(hydroxymethyl)tetrahydro-2H-pyran-2-yl)oxy)ethoxy)ethoxy)ethyl)-1H-1,2,3-triazol-4-yl)methyl)methanaminium formation incubated for 72 hrs by LC-MS analysis. In kind it is physicochemical.
A short description of data set [12]: Stability of compound in 0.9 % saline solution assessed as solvolysis constant (K) incubated for 72 hrs by LC-MS analysis. The class given is physicochemical. The conditions noted are these: buffer.
Data set [13] in a line: Stability of compound in 20 mM CH3COONH4 buffer at pH 5.8 assessed as solvolysis constant (K) incubated for 72 hrs by LC-MS analysis. In kind it is physicochemical. On the set-up: unit not given beside the values. The conditions noted are these: pH 5.8, 72 h.
Data set [14] is described as follows: Stability of compound in 50 mM Tris-HCL buffer at pH 7.4 assessed as 1-borono-N,N-dimethyl-N-((1-(2-(2-(2-(((2R,3R,4S,5S,6R)-3,4,5-trihydroxy-6-(hydroxymethyl)tetrahydro-2H-pyran-2-yl)oxy)ethoxy)ethoxy)ethyl)-1H-1,2,3-triazol-4-yl)methyl)methanaminium formation incubated for 72 hrs by LC-MS analysis. The conditions noted are these: pH 7.4, 72 h. In kind it is physicochemical.

Data set [15] can be described thus: Stability in mouse plasma measured after 1 hr by LC-HRMS analysis. In kind it is ADME, cell-free. The conditions noted are these: read-out: Stability.
Data set [16] is described as follows: Stability of compound in 0.05 M HCL assessed as 1-borono-N,N-dimethyl-N-((1-(2-(2-(2-(((2R,3R,4S,5S,6R)-3,4,5-trihydroxy-6-(hydroxymethyl)tetrahydro-2H-pyran-2-yl)oxy)ethoxy)ethoxy)ethyl)-1H-1,2,3-triazol-4-yl)methyl)methanaminium formation incubated for 72 hrs by LC-MS analysis. In kind it is physicochemical. The conditions noted are these: buffer.
Data set [17] is described as follows: Stability of compound in 0.5 M NaOH assessed as half life incubated for 72 hrs by LC-MS analysis. In kind it is physicochemical.
Data set [18] can be described thus: Metabolic stability in mouse liver microsomes assessed as drug hydrolysis 1-borono-N,N-dimethyl-N-((1-(2-(2-(2-(((2R,3R,4S,5S,6R)-3,4,5-trihydroxy-6-(hydroxymethyl)tetrahydro-2H-pyran-2-yl)oxy)ethoxy)ethoxy)ethyl)-1H-1,2,3-triazol-4-yl)methyl)methanaminium formation incubated for 1 hrs by LC-MS/MS analysis. In kind it is ADME, Microsome.
Data set [19] can be described thus: Stability of compound in 0.5 M NaOH assessed as solvolysis constant (K) incubated for 72 hrs by LC-MS analysis. In kind it is physicochemical. On the set-up: unit not given beside the values.
Data set [20] in a line: Stability of compound in 0.9 % saline solution assessed as 1-(boronomethyl)-1-(2-(2-(2-(((2R,3R,4S,5S,6R)-3,4,5-trihydroxy-6-(hydroxymethyl)tetrahydro-2H-pyran-2-yl)oxy)ethoxy)ethoxy)ethyl)piperidin-1-ium formation incubated for 72 hrs by LC-MS analysis. The class given is physicochemical. The conditions noted are these: buffer.
The nature of data set [21]: Metabolic stability in mouse liver microsomes assessed as drug hydrolysis by measuring 1-(boronomethyl)-1-(2-(2-(2-(((2R,3R,4S,5S,6R)-3,4,5-trihydroxy-6-(hydroxymethyl)tetrahydro-2H-pyran-2-yl)oxy)ethoxy)ethoxy)ethyl)piperidin-1-ium formation incubated for 1 hrs by LC-MS/MS analysis. In kind it is ADME, Microsome.
Data set [22] is described as follows: Stability of compound in 0.5 M NaOH assessed as 1-(boronomethyl)-1-(2-(2-(2-(((2R,3R,4S,5S,6R)-3,4,5-trihydroxy-6-(hydroxymethyl)tetrahydro-2H-pyran-2-yl)oxy)ethoxy)ethoxy)ethyl)piperidin-1-ium formation incubated for 72 hrs by LC-MS analysis. The class given is physicochemical.
Data set [23] can be described thus: Stability of compound in 50 mM Tris-HCL buffer at pH 7.4 assessed as 1-(boronomethyl)-1-(2-(2-(2-(((2R,3R,4S,5S,6R)-3,4,5-trihydroxy-6-(hydroxymethyl)tetrahydro-2H-pyran-2-yl)oxy)ethoxy)ethoxy)ethyl)piperidin1ium formation incubated for 72 hrs by LC-MS analysis. In kind it is physicochemical. The conditions noted are these: pH 7.4, 72 h.
A short description of data set [24]: Stability of compound in 20 mM CH3COONH4 buffer at pH 5.8 assessed as 1-(boronomethyl)-1-(2-(2-(2-(((2R,3R,4S,5S,6R)-3,4,5-trihydroxy-6-(hydroxymethyl)tetrahydro-2H-pyran-2-yl)oxy)ethoxy)ethoxy)ethyl)piperidin-1-ium formation incubated for 72 hrs by LC-MS analysis. The class given is physicochemical. The conditions noted are these: pH 5.8, 72 h.
Data set [25] in a line: Stability of compound in 0.3 % H2O2 assessed as (2R,3S,4S,5R,6R)-2-(hydroxymethyl)-6-(2-(2-(2-(piperidin-1-yl)ethoxy)ethoxy)ethoxy)tetrahydro-2H-pyran-3,4,5-triol formation incubated for 1 hrs by LC-MS analysis. The class given is physicochemical.
The nature of data set [26]: Stability of compound in 0.05 M HCL assessed as 1-(boronomethyl)-1-(2-(2-(2-(((2R,3R,4S,5S,6R)-3,4,5-trihydroxy-6-(hydroxymethyl)tetrahydro-2H-pyran-2-yl)oxy)ethoxy)ethoxy)ethyl)piperidin-1-ium formation incubated for 72 hrs by LC-MS analysis. The class given is physicochemical. The conditions noted are these: buffer.
Data set [27] in a line: Stability of compound in 0.5 M NaOH assessed as 1-methyl-1-(2-(2-(2-(((2R,3R,4S,5S,6R)-3,4,5-trihydroxy-6-(hydroxymethyl)tetrahydro-2H-pyran-2-yl)oxy)ethoxy)ethoxy)ethyl)piperidin-1-ium formation incubated for 72 hrs by LC-MS analysis. In kind it is physicochemical.
Data set [28] is described as follows: Stability of compound in 50 mM Tris-HCL buffer at pH 7.4 assessed as 4-(boronomethyl)-4-(2-(2-(2-(((2R,3R,4S,5S,6R)-3,4,5-trihydroxy-6-(hydroxymethyl)tetrahydro-2H-pyran-2-yl)oxy)ethoxy)ethoxy)ethyl)morpholin4ium formation incubated for 72 hrs by LC-MS analysis. In kind it is physicochemical. The conditions noted are these: pH 7.4, 72 h.
Data set [29] can be described thus: Stability of compound in 0.9 % saline solution assessed as 4-(boronomethyl)-4-(2-(2-(2-(((2R,3R,4S,5S,6R)-3,4,5-trihydroxy-6-(hydroxymethyl)tetrahydro-2H-pyran-2-yl)oxy)ethoxy)ethoxy)ethyl)morpholin-4-ium formation incubated for 72 hrs by LC-MS analysis. In kind it is physicochemical. The conditions noted are these: buffer.
Data set [30] in a line: Stability of compound in 0.3 % H2O2 assessed as (2R,3S,4S,5R,6R)-2-(hydroxymethyl)-6-(2-(2-(2-morpholinoethoxy)ethoxy)ethoxy)tetrahydro-2H-pyran-3,4,5-triol formation incubated for 1 hrs by LC-MS analysis. In kind it is physicochemical.
Data set [31] is described as follows: Stability of compound in 0.5 M NaOH assessed as 4-methyl-4-(2-(2-(2-(((2R,3R,4S,5S,6R)-3,4,5-trihydroxy-6-(hydroxymethyl)tetrahydro-2H-pyran-2-yl)oxy)ethoxy)ethoxy)ethyl)morpholin-4-ium formation incubated for 72 hrs by LC-MS analysis. The class given is physicochemical.
Data set [32] is described as follows: Stability of compound in 0.05 M HCL assessed as 4-(boronomethyl)-4-(2-(2-(2-(((2R,3R,4S,5S,6R)-3,4,5-trihydroxy-6-(hydroxymethyl)tetrahydro-2H-pyran-2-yl)oxy)ethoxy)ethoxy)ethyl)morpholin-4-ium formation incubated for 72 hrs by LC-MS analysis. In kind it is physicochemical. The conditions noted are these: buffer.
The nature of data set [33]: Stability of compound in 20 mM CH3COONH4 buffer at pH 5.8 assessed as 4-(boronomethyl)-4-(2-(2-(2-(((2R,3R,4S,5S,6R)-3,4,5-trihydroxy-6-(hydroxymethyl)tetrahydro-2H-pyran-2-yl)oxy)ethoxy)ethoxy)ethyl)morpholin-4-ium formation incubated for 72 hrs by LC-MS analysis. The conditions noted are these: pH 5.8, 72 h. In kind it is physicochemical.
A short description of data set [34]: Stability of compound in 0.5 M NaOH assessed as 4-(boronomethyl)-4-(2-(2-(2-(((2R,3R,4S,5S,6R)-3,4,5-trihydroxy-6-(hydroxymethyl)tetrahydro-2H-pyran-2-yl)oxy)ethoxy)ethoxy)ethyl)morpholin-4-ium formation incubated for 72 hrs by LC-MS analysis. The class given is physicochemical.
Data set [35] is described as follows: Metabolic stability in mouse liver microsomes assessed as drug hydrolysis by measuring 4-(boronomethyl)-4-(2-(2-(2-(((2R,3R,4S,5S,6R)-3,4,5-trihydroxy-6-(hydroxymethyl)tetrahydro-2H-pyran-2-yl)oxy)ethoxy)ethoxy)ethyl)morpholin-4-ium incubated for 1 hrs by LC-MS/MS analysis. In kind it is ADME, Microsome.

On to `C[N+](C)(Cc1cn(CCOCCOCCO[C@@H]2O[C@H](CO)[C@@H](O)[C@H](O)[C@H]2O)nn1)C[B-](F)(F)F`, for which the Stability result in data set [1], in data set [3], in data set [8], in data set [10], in data set [11] and in [14] was “Stable” in each case. Besides, in data set [16], the Stability result is given as “Stable”. Also, the half-life is at least 15.7 h in data set [2]; 38.4 h in [6]; at least 58 h in data set [7]; 1.42 h in data set [9]; 36 h in data set [17]. Moreover, the K in [4] was found to be 0.489; in [5] it was 0.005; in [12], 0.018; in data set [13], 0.003; in [19], 0.019. Also, the remaining at 1 h in data set [15] worked out at 1.2%. In [18], the Drug metabolism entry is on record as “metabolite_detected”.
For `OC[C@H]1O[C@@H](OCCOCCOCC[N+]2(C[B-](F)(F)F)CCCCC2)[C@H](O)[C@@H](O)[C@@H]1O`, the half-life in data set [2] is 8.82 h; in [6] it was 1.81 h; in [7], 4.76 h; in data set [9], 0.108 h; in data set [17], 4.95 h. The Stability result in data set [20], in [22], in data set [23], in data set [24], in data set [25] and in [26] was “Stable” throughout. Also, the Stability entry in [27] is on record as “Stable”. Also, the Drug metabolism entry in [21] is “metabolite_detected”. In addition, the K is recorded as 6.439 in data set [4]; 0.146 in data set [5]; 0.383 in [12]; 0.078 in data set [13]; 0.14 in data set [19]. Moreover, the remaining at 1 h in [15] is 14.1%.
`OC[C@H]1O[C@@H](OCCOCCOCC[N+]2(C[B-](F)(F)F)CCOCC2)[C@H](O)[C@@H](O)[C@@H]1O`: the half-life is 32.7 h in data set [2]; 5.11 h in data set [6]; 10.1 h in data set [7]; 0.301 h in [9]; 11.3 h in [17]. Besides, the Stability entry in [28], in [29], in data set [30], in data set [31], in data set [32] and in data set [33] was “Stable” throughout. Also, the Stability entry in [34] is given as “Stable”. Further, the K is given as 2.302 in data set [4]; 0.068 in [5]; 0.136 in [12]; 0.021 in [13]; 0.061 in data set [19]. For the same compound, the remaining at 1 h in data set [15] is 2.73%. Also, the Drug metabolism entry in data set [35] is reported as “metabolite_detected”.
